The record followed here is patent publication US7192924B2, “Corticotropin releasing factor 2 receptor agonists” (priority 2002, dated 2007).

Peptide text beside a SMILES is read from it. A value given as a limit tells only on which side of the number the result lay.

The target in one test is T1, CRF1R (Homo sapiens, UniProt P34998).
T1 sequence (P34998 24-415): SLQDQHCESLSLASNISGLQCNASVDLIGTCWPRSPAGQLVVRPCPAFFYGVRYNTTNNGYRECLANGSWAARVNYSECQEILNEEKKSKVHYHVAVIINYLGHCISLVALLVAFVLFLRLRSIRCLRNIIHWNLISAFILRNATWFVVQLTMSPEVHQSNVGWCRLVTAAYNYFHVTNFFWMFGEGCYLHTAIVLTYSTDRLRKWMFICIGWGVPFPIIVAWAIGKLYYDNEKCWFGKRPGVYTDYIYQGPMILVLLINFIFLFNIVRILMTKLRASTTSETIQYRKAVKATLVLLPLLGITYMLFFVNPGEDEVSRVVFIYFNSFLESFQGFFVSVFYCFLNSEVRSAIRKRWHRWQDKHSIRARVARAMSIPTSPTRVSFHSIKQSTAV
In words: CRF1R agonist activity (EC50, Emax), called comparative CRF binding. Particulars: read-out: CRF1R EC50. It counts as cell-based. From the text:
(§1) The pharmacological activity and selectivity of the peptides of present invention can be determined using published test procedures. See, e.g, U.S. patent application Ser. No. 09/799,978. Because CRF2R and CRF1R are homologous proteins, it is expected that a certain proportion of agonists for CRF2R will also function as agonists of CRF1R. As discussed above, activation of CRF1R induces activation of the HPA axis since increased corticosteroid production leads to skeletal muscle atrophy. In most cases in which an increase in muscle mass or function is desired, it is not desirable to activate the HPA axis.
(§2) Because it is desirable to discriminate binding between CRF2R, as compared with CRF1R, the assays described above may be conducted using a cell, or membrane from a cell, which expresses only CRF2R or the assays can be conducted with a recombinant source of CRF2R. Cells expressing both forms of CRFR may be modified using homologous recombination to inactivate or otherwise disable the CRF1R gene. Alternatively, if the source of CRFR contains more than one CRFR type, the background signal produced by the receptor which is not of interest must be subtracted from the signal obtained in the assay. […] Known antagonists of CRFRs include, but, are not limited to, antalarmin (CRF1R selective), antisauvagine-30 (CRF2R selective) and astressin (nonselective for CRF1R/CRF2R).
(§3) Cell-based assays include the steps of contacting cells which express CRF1R or CRF2R with a peptide of the present invention or control and measuring activation of the CRFR by measuring the expression or activity of components of the CRFR signal transduction pathways.
(§4) As described in the background section above, CRFRs appear to couple through several different pathways including Gαs, Gαq or Gαi, depending upon the cell type. It is thought that agonist activation of CRFR allows the receptor to signal via any of these pathways, provided that the necessary pathway components are present in the particular cell type. Thus, to assay a particular peptide of the present invention for CRFR activation, an assay can use any of the signal transduction pathways as the readout even if the relevant cell type for treatment, in vivo, couples CRFR to skeletal muscle atrophy via a different pathway. […] Assays for measuring activation of these signaling pathways are known in the art.
(§5) For example, after contact with a peptide of the present invention, lysates of the cells can be prepared and assayed for induction of cAMP. cAMP is induced in response to Gαs activation. Because Gαs is activated by receptors other than CRFR and because a test peptide may be exerting its effect through CRFRs or by another mechanism, two control comparisons are relevant for determining whether the peptide increases levels of cAMP via activation of a CRFR. One control compares the cAMP level of cells contacted with the peptide and the cAMP level of cells contacted with a control compound (i.e., the vehicle in which the peptide is dissolved).
(§6) In one example, cAMP induction is measured with the use of DNA constructs containing the cAMP responsive element linked to any of a variety of reporter genes can be introduced into cells expressing CRFRs. Such reporter genes include, but are not limited to, chloramphenicol acetyltransferase (CAT), luciferase, glucuronide synthetase, growth hormone, fluorescent proteins (e.g., Green Fluorescent Protein), or alkaline phosphatase. Following exposure of the cells to the peptide, the level of reporter gene expression can be quantitated to determine the peptide's ability to increase cAMP levels and thus determine the peptide's ability to activate the CRFR.
(§7) In addition to using cells expressing full length CRFRs, cells can be engineered which express CRFRs containing the ligand binding domain of the receptor coupled to, or physically modified to contain, reporter elements or to interact with signaling proteins.

The target of another test is T2, CRF2R (Homo sapiens, UniProt Q13324).
T2 sequence (Q13324 1-411): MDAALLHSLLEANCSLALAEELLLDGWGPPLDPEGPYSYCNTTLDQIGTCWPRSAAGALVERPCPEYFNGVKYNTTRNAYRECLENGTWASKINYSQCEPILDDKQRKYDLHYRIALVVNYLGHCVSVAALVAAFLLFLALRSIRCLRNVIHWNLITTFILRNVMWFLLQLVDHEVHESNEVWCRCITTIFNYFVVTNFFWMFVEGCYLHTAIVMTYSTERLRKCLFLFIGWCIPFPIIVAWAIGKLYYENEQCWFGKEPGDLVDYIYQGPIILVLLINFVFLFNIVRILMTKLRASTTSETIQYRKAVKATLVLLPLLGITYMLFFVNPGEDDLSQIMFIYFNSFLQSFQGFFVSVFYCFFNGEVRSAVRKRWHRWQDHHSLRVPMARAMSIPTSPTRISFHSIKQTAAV
In words: CRF2R agonist activity (EC50, Emax), called comparative CRF binding. The note with it: read-out: CRF2R EC50. It counts as cell-based.
Excerpt: as §1, §2, §3, §4, §5, §6, §7

In the case of `CC[C@H](C)[C@H](N)C(=O)N[C@H](C(=O)N[C@@H](CC(C)C)C(=O)N[C@@H](CO)C(=O)N[C@@H](CC(C)C)C(=O)N[C@@H](CC(=O)O)C(=O)N[C@H](C(=O)N1CCC[C@H]1C(=O)N[C@H](C(=O)NCC(=O)N[C@@H](CC(C)C)C(=O)N[C@@H](CC(C)C)C(=O)N[C@@H](CCC(N)=O)C(=O)N[C@H](C(=O)N[C@@H](CC(C)C)C(=O)N[C@@H](CC(C)C)C(=O)N[C@@H](CCC(=O)O)C(=O)N[C@@H](CCC(N)=O)C(=O)N[C@@H](CCC(=O)O)C(=O)N[C@@H](CCCCN)C(=O)N[C@@H](C)C(=O)N[C@@H](CCCNC(=N)N)C(=O)N[C@@H](C)C(=O)N[C@@H](C)C(=O)N[C@@H](CCCNC(=N)N)C(=O)N[C@@H](CCC(=O)O)C(=O)N[C@@H](CCC(N)=O)C(=O)N[C@@H](C)C(=O)N[C@H](C(=O)N[C@H](C(=O)N[C@@H](CC(N)=O)C(=O)N[C@@H](C)C(=O)N[C@@H](CCCNC(=N)N)C(=O)N[C@H](C(=O)N[C@@H](CC(C)C)C(=O)N[C@@H](C)C(=O)N[C@@H](CCCNC(=N)N)C(=O)N[C@H](C(N)=O)C(C)C)[C@@H](C)CC)[C@@H](C)O)[C@@H](C)O)[C@@H](C)CC)[C@@H](C)CC)C(C)C)C(C)C` [compound 107] (H-IVLSLDVPIGLLQILLEQEKARAAREQATTNARILARV-NH2), the EC50 on CRF1R was no less than 1000 nM.

In the case of `CC[C@H](C)[C@H](N)C(=O)N[C@H](C(=O)N[C@@H](CC(C)C)C(=O)N[C@@H](CO)C(=O)N[C@@H](CC(C)C)C(=O)N[C@@H](CC(=O)O)C(=O)N[C@H](C(=O)N1CCC[C@H]1C(=O)N[C@H](C(=O)NCC(=O)N[C@@H](CC(C)C)C(=O)N[C@@H](CC(C)C)C(=O)N[C@@H](CCC(N)=O)C(=O)N[C@H](C(=O)N[C@@H](CC(C)C)C(=O)N[C@@H](CC(C)C)C(=O)N[C@@H](CCC(=O)O)C(=O)N[C@@H](CCC(N)=O)C(=O)N[C@@H](CCC(=O)O)C(=O)N[C@@H](CCCCN)C(=O)N[C@@H](C)C(=O)N[C@@H](CCCNC(=N)N)C(=O)N[C@@H](C)C(=O)N[C@@H](C)C(=O)N[C@@H](CCCNC(=N)N)C(=O)N[C@@H](CCC(=O)O)C(=O)N[C@@H](CCC(N)=O)C(=O)N[C@@H](C)C(=O)N[C@H](C(=O)N[C@H](C(=O)N[C@@H](CC(N)=O)C(=O)N[C@@H](C)C(=O)N[C@@H](CCCNC(=N)N)C(=O)N[C@H](C(=O)N[C@@H](CC(C)C)C(=O)N[C@@H](C)C(=O)N[C@@H](CCCNC(=N)N)C(=O)N[C@H](C(N)=O)C(C)C)[C@@H](C)CC)[C@@H](C)O)[C@@H](C)O)[C@@H](C)CC)[C@@H](C)CC)C(C)C)C(C)C` [compound 325] (H-IVLSLDVPIGLLQILLEQEKARAAREQATTNARILARV-NH2), the EC50 on CRF2R is 11.7 nM.

For `CC[C@H](C)[C@H](NC(=O)[C@H](C)NC(=O)[C@H](CC(N)=O)NC(=O)[C@H](CCC(N)=O)NC(=O)[C@H](CCC(=O)O)NC(=O)[C@H](C)NC(=O)[C@H](CCCNC(=N)N)NC(=O)[C@H](CCC(=O)O)NC(=O)[C@H](CCCNC(=N)N)NC(=O)[C@H](CCC(N)=O)NC(=O)[C@H](CO)NC(=O)[C@H](CCC(N)=O)NC(=O)[C@@H](NC(=O)[C@H](CCCCN)NC(=O)[C@H](CCC(=O)O)NC(=O)[C@H](CC(C)C)NC(=O)[C@H](CCC(=O)O)NC(=O)[C@H](CC(C)C)NC(=O)[C@H](CC(C)C)NC(=O)[C@@H](NC(=O)[C@H](CCCNC(=N)N)NC(=O)[C@H](CC(C)C)NC(=O)[C@H](CC(C)C)NC(=O)[C@H](CC(C)C)NC(=O)[C@H](CC(C)C)NC(=O)[C@@H]1CCCN1C(=O)[C@H](CC(C)C)NC(=O)[C@H](CC(=O)O)NC(=O)[C@@H](NC(=O)[C@H](CO)NC(=O)[C@H](CC(C)C)NC(=O)[C@H](CO)NC(=O)[C@@H]1CCCN1C(=O)[C@H](CC(N)=O)NC(=O)[C@@H](N)CC(=O)O)[C@@H](C)CC)[C@@H](C)O)[C@@H](C)O)C(=O)N[C@H](C(=O)N[C@@H](Cc1ccccc1)C(=O)N[C@@H](C)C(=O)N[C@@H](CO)C(=O)N[C@H](C(N)=O)C(C)C)[C@@H](C)CC` [compound 346] (H-DNPSLSIDLPLLLLRTLLELEKTQSQRERAEQNAIIFASV-NH2), at CRF2R, the EC50 came out at 8.48 nM.

Take `CC[C@H](C)[C@H](NC(=O)[C@H](C)NC(=O)[C@H](CC(N)=O)NC(=O)[C@H](CCC(N)=O)NC(=O)[C@H](CCC(=O)O)NC(=O)[C@H](C)NC(=O)[C@H](CCCNC(=N)N)NC(=O)[C@H](CCC(=O)O)NC(=O)[C@H](CCCNC(=N)N)NC(=O)[C@H](CCC(N)=O)NC(=O)[C@H](CO)NC(=O)[C@H](CCC(N)=O)NC(=O)[C@@H](NC(=O)[C@H](CCCCN)NC(=O)[C@H](CCC(=O)O)NC(=O)[C@H](CC(C)C)NC(=O)[C@H](CCC(=O)O)NC(=O)[C@H](CC(C)C)NC(=O)[C@H](CC(C)C)NC(=O)[C@@H](NC(=O)[C@H](CCCNC(=N)N)NC(=O)[C@H](CC(C)C)NC(=O)[C@H](CC(C)C)NC(=O)[C@H](CC(C)C)NC(=O)[C@H](CC(C)C)NC(=O)[C@@H]1CCCN1C(=O)[C@H](CC(C)C)NC(=O)[C@H](CC(=O)O)NC(=O)[C@@H](NC(=O)[C@H](CO)NC(=O)[C@H](CC(C)C)NC(=O)[C@H](CO)NC(=O)[C@@H]1CCCN1)[C@@H](C)CC)[C@@H](C)O)[C@@H](C)O)C(=O)N[C@H](C(=O)N[C@@H](Cc1ccccc1)C(=O)N[C@@H](C)C(=O)N[C@@H](CO)C(=O)N[C@H](C(N)=O)C(C)C)[C@@H](C)CC` [compound 348] (H-PSLSIDLPLLLLRTLLELEKTQSQRERAEQNAIIFASV-NH2): the EC50 at CRF2R amounted to 5.77 nM.

With `CC[C@H](C)[C@H](N)C(=O)N[C@H](C(=O)N[C@@H](CC(C)C)C(=O)N[C@@H](CO)C(=O)N[C@@H](CC(C)C)C(=O)N[C@@H](CC(=O)O)C(=O)N[C@H](C(=O)N1CCC[C@H]1C(=O)N[C@H](C(=O)NCC(=O)N[C@@H](CC(C)C)C(=O)N[C@@H](CC(C)C)C(=O)N[C@@H](CCC(N)=O)C(=O)N[C@H](C(=O)N[C@@H](CC(C)C)C(=O)N[C@@H](CC(C)C)C(=O)N[C@@H](CCC(=O)O)C(=O)N[C@@H](CCC(N)=O)C(=O)N[C@@H](C)C(=O)N[C@@H](CCCNC(=N)N)C(=O)N[C@@H](C)C(=O)N[C@@H](CCCNC(=N)N)C(=O)N[C@@H](C)C(=O)N[C@@H](C)C(=O)N[C@@H](CCCNC(=N)N)C(=O)N[C@@H](CCC(=O)O)C(=O)N[C@@H](CCC(N)=O)C(=O)N[C@@H](C)C(=O)N[C@H](C(=O)N[C@H](C(=O)N[C@@H](CC(N)=O)C(=O)N[C@@H](C)C(=O)N[C@@H](CCCNC(=N)N)C(=O)N[C@H](C(=O)N[C@@H](CC(C)C)C(=O)N[C@@H](C)C(=O)N[C@@H](CCCNC(=N)N)C(=O)N[C@H](C(=O)N[C@@H](CCSC)C(N)=O)C(C)C)[C@@H](C)CC)[C@@H](C)O)[C@@H](C)O)[C@@H](C)CC)[C@@H](C)CC)C(C)C)C(C)C` [compound 356] (H-IVLSLDVPIGLLQILLEQARARAAREQATTNARILARVM-NH2; N-terminus assumed), the EC50 at CRF2R was 83 nM.

The term EC50 denotes the concentration needed to bring the measured effect to its halfway point.
